Experimental data from ChEMBL document CHEMBL1201862, “PubChem BioAssay data set” (2004).
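Tested at 5 concentrations; 48 h exposure; 96-well plates; endpoints linearly interpolated, else capped at highest concentration. GI50 is the concentration that inhibits growth by half.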 Active and inactive are the calls of the source. Rule as the data show it: active = GI50 up to about 1.1 µM and inactive = higher.

Columns and labels:
Test in all cases: DTP human tumour cell line panel, 48 h
NCI-H522 = tested on: NCI-H522
OVCAR-4 = tested on: OVCAR-4
Hs-578T = tested on: Hs-578T
SF-295 = tested on: SF-295
CAKI-1 = tested on: CAKI-1
UO-31 = tested on: UO-31
OVCAR-3 = tested on: OVCAR-3
M14 = tested on: M14
IGROV-1 = tested on: IGROV-1
Malme-3M = tested on: Malme-3M
MDA-MB-231 = tested on: MDA-MB-231
MDA-N = tested on: MDA-N
SF-539 = tested on: SF-539
OVCAR-5 = tested on: OVCAR-5
K562 = tested on: K562
COLO 205 = tested on: COLO 205
SN12C = tested on: SN12C
HL-60 = tested on: HL-60
NCI-H226 = tested on: NCI-H226
RXF 393 = tested on: RXF 393
UACC-257 = tested on: UACC-257
DU-145 = tested on: DU-145
TK-10 = tested on: TK-10
SK-OV-3 = tested on: SK-OV-3
MCF7 = tested on: MCF7
NCI-H23 = tested on: NCI-H23
SW-620 = tested on: SW-620
OVCAR-8 = tested on: OVCAR-8
SR = tested on: SR
NCI/ADR-RES = tested on: NCI/ADR-RES
SNB-75 = tested on: SNB-75
PC-3 = tested on: PC-3
A549 = tested on: A549
T47D = tested on: T47D
HCT-15 = tested on: HCT-15
CCRF-CEM = tested on: CCRF-CEM
MOLT-4 = tested on: MOLT-4
HT-29 = tested on: HT-29
SF-268 = tested on: SF-268
LOX IMVI = tested on: LOX IMVI
KM12 = tested on: KM12
ACHN = tested on: ACHN
SK-MEL-2 = tested on: SK-MEL-2
UACC-62 = tested on: UACC-62
RPMI-8226 = tested on: RPMI-8226
A498 = tested on: A498
HCT-116 = tested on: HCT-116
SK-MEL-28 = tested on: SK-MEL-28
EKVX = tested on: EKVX
SK-MEL-5 = tested on: SK-MEL-5
HOP-62 = tested on: HOP-62
786-0 = tested on: 786-0
HOP-92 = tested on: HOP-92
NCI-H460 = tested on: NCI-H460
MDA-MB-435 = tested on: MDA-MB-435
HCC 2998 = tested on: HCC 2998
SNB-19 = tested on: SNB-19
U-251 = tested on: U-251

Structure (SMILES): CN(CCc1ccccn1)C(=S)N/N=C/c1ccccn1
- GI50 (NCI-H522): < 0.01 µM (active)
- GI50 (OVCAR-4): 0.112 µM (active)
- GI50 (Hs-578T): 20 µM (inactive)
- GI50 (SF-295): 0.147 µM (active)
- GI50 (CAKI-1): < 0.01 µM (active)
- GI50 (UO-31): 0.139 µM (active)
- GI50 (OVCAR-3): < 0.01 µM (active)
- GI50 (M14): < 0.0226 µM (active)
- GI50 (IGROV-1): 0.0184 µM (active)
- GI50 (Malme-3M): 0.182 µM (active)
- GI50 (MDA-MB-231): < 0.01 µM (active)
- GI50 (MDA-N): 0.551 µM (active)
- GI50 (SF-539): 0.0935 µM (active)
- GI50 (OVCAR-5): 0.0238 µM (active)
- GI50 (K562): < 0.01 µM (active)
- GI50 (COLO 205): < 0.01 µM (active)
- GI50 (SN12C): 0.111 µM (active)
- GI50 (HL-60): < 0.01 µM (active)
- GI50 (NCI-H226): 0.0516 µM (active)
- GI50 (RXF 393): 0.126 µM (active)
- GI50 (UACC-257): < 0.0213 µM (active)
- GI50 (DU-145): 0.298 µM (active)
- GI50 (TK-10): 0.043 µM (active)
- GI50 (SK-OV-3): 0.376 µM (active)
- GI50 (MCF7): < 0.01 µM (active)
- GI50 (NCI-H23): < 0.0275 µM (active)
- GI50 (SW-620): 0.0916 µM (active)
- GI50 (OVCAR-8): 0.0308 µM (active)
- GI50 (SR): < 0.01 µM (active)
- GI50 (NCI/ADR-RES): < 0.0201 µM (active)
- GI50 (SNB-75): 7.5 µM (inactive)
- GI50 (PC-3): 0.0456 µM (active)
- GI50 (A549): 0.285 µM (active)
- GI50 (T47D): < 0.01 µM (active)
- GI50 (HCT-15): 0.0148 µM
- GI50 (CCRF-CEM): < 0.01 µM (active)
- GI50 (MOLT-4): < 0.01 µM (active)
- GI50 (HT-29): < 0.0473 µM (active)
- GI50 (SF-268): 0.248 µM (active)
- GI50 (LOX IMVI): 0.07 µM (active)
- GI50 (KM12): 0.0719 µM (active)
- GI50 (ACHN): 0.0366 µM (active)
- GI50 (SK-MEL-2): 0.0168 µM (active)
- GI50 (UACC-62): 0.195 µM (active)
- GI50 (RPMI-8226): < 0.01 µM (active)
- GI50 (A498): 0.0194 µM (active)
- GI50 (HCT-116): < 0.01 µM (active)
- GI50 (SK-MEL-28): 0.442 µM (active)
- GI50 (EKVX): 0.102 µM (active)
- GI50 (SK-MEL-5): 0.11 µM (active)
- GI50 (HOP-62): 0.0336 µM (active)
- GI50 (786-0): 0.0495 µM (active)
- GI50 (HOP-92): 0.105 µM (active)
- GI50 (NCI-H460): 0.299 µM (active)
- GI50 (MDA-MB-435): 0.678 µM (active)
- GI50 (HCC 2998): 0.23 µM (active)
- GI50 (SNB-19): 4.69 µM (inactive)

Structure (SMILES): CCOC(=S)SSSC(=S)OCC
- GI50 (Hs-578T): > 100 µM (inactive)
- GI50 (SF-295): 51.5 µM (inactive)
- GI50 (CAKI-1): 29.9 µM (inactive)
- GI50 (OVCAR-3): 26.4 µM (inactive)
- GI50 (M14): 27 µM (inactive)
- GI50 (Malme-3M): 16.3 µM (inactive)
- GI50 (MDA-MB-231): 33.1 µM (inactive)
- GI50 (MDA-N): 49.3 µM (inactive)
- GI50 (SF-539): 67.1 µM (inactive)
- GI50 (OVCAR-5): 28.6 µM (inactive)
- GI50 (U-251): 31.6 µM (inactive)
- GI50 (K562): 26.3 µM (inactive)
- GI50 (COLO 205): 55 µM (inactive)
- GI50 (SN12C): 21.6 µM (inactive)
- GI50 (HL-60): 76.6 µM (inactive)
- GI50 (NCI-H226): 82.6 µM (inactive)
- GI50 (RXF 393): 47.9 µM (inactive)
- GI50 (UACC-257): 50.5 µM (inactive)
- GI50 (DU-145): 21 µM (inactive)
- GI50 (TK-10): > 100 µM (inactive)
- GI50 (SK-OV-3): > 100 µM (inactive)
- GI50 (MCF7): 28.2 µM (inactive)
- GI50 (NCI-H23): 33.4 µM (inactive)
- GI50 (SW-620): 32.5 µM (inactive)
- GI50 (OVCAR-8): 13.8 µM (inactive)
- GI50 (SR): 13.5 µM (inactive)
- GI50 (NCI/ADR-RES): 58.1 µM (inactive)
- GI50 (SNB-75): 28.2 µM (inactive)
- GI50 (PC-3): > 100 µM (inactive)
- GI50 (A549): 33.7 µM (inactive)
- GI50 (T47D): 4.22 µM (inactive)
- GI50 (HCT-15): 19.5 µM
- GI50 (CCRF-CEM): 30.5 µM (inactive)
- GI50 (MOLT-4): 27.9 µM (inactive)
- GI50 (HT-29): 54.3 µM (inactive)
- GI50 (SF-268): 71.3 µM (inactive)
- GI50 (LOX IMVI): 25.1 µM (inactive)
- GI50 (KM12): 41.4 µM (inactive)
- GI50 (ACHN): 19.1 µM (inactive)
- GI50 (UACC-62): 37.9 µM (inactive)
- GI50 (RPMI-8226): 24 µM (inactive)
- GI50 (A498): > 100 µM (inactive)
- GI50 (HCT-116): 20.8 µM (inactive)
- GI50 (SK-MEL-28): > 100 µM (inactive)
- GI50 (EKVX): 48.5 µM (inactive)
- GI50 (SK-MEL-5): 36.1 µM (inactive)
- GI50 (HOP-62): 30.3 µM (inactive)
- GI50 (786-0): 15.2 µM (inactive)
- GI50 (HOP-92): > 100 µM (inactive)
- GI50 (NCI-H460): 30.7 µM (inactive)
- GI50 (MDA-MB-435): 54.3 µM (inactive)
- GI50 (HCC 2998): 68.4 µM (inactive)
- GI50 (SNB-19): 65 µM (inactive)

Structure (SMILES): O/N=C(\CC(O)(C(F)(F)F)C(F)(F)F)c1cccc(Cl)c1
- GI50 (NCI-H522): 30.5 µM (inactive)
- GI50 (OVCAR-4): 34.5 µM (inactive)
- GI50 (Hs-578T): 21.5 µM (inactive)
- GI50 (SF-295): 38.7 µM (inactive)
- GI50 (CAKI-1): 21.5 µM (inactive)
- GI50 (OVCAR-3): 19.8 µM (inactive)
- GI50 (M14): 22.8 µM (inactive)
- GI50 (IGROV-1): 27.1 µM (inactive)
- GI50 (Malme-3M): 33.7 µM (inactive)
- GI50 (MDA-MB-231): 22.5 µM (inactive)
- GI50 (MDA-N): 37.3 µM (inactive)
- GI50 (SF-539): 28.6 µM (inactive)
- GI50 (OVCAR-5): 47.9 µM (inactive)
- GI50 (U-251): 20.2 µM (inactive)
- GI50 (K562): 30.2 µM (inactive)
- GI50 (COLO 205): 35.6 µM (inactive)
- GI50 (HL-60): 23.5 µM (inactive)
- GI50 (NCI-H226): 20.8 µM (inactive)
- GI50 (RXF 393): 15.6 µM (inactive)
- GI50 (UACC-257): 35.6 µM (inactive)
- GI50 (DU-145): 40.6 µM (inactive)
- GI50 (TK-10): 22.3 µM (inactive)
- GI50 (SK-OV-3): 22.7 µM (inactive)
- GI50 (MCF7): 35 µM (inactive)
- GI50 (NCI-H23): 20.5 µM (inactive)
- GI50 (SW-620): 37.8 µM (inactive)
- GI50 (OVCAR-8): 37.4 µM (inactive)
- GI50 (SR): 45.3 µM (inactive)
- GI50 (NCI/ADR-RES): 38 µM (inactive)
- GI50 (SNB-75): 18.2 µM (inactive)
- GI50 (PC-3): 29.9 µM (inactive)
- GI50 (A549): 35.9 µM (inactive)
- GI50 (T47D): 32.7 µM (inactive)
- GI50 (HCT-15): 32.4 µM
- GI50 (CCRF-CEM): 19.8 µM (inactive)
- GI50 (MOLT-4): 15.5 µM (inactive)
- GI50 (HT-29): 69.2 µM (inactive)
- GI50 (LOX IMVI): 23 µM (inactive)
- GI50 (KM12): 34.8 µM (inactive)
- GI50 (ACHN): 23.8 µM (inactive)
- GI50 (SK-MEL-2): 22.7 µM (inactive)
- GI50 (UACC-62): 38.9 µM (inactive)
- GI50 (RPMI-8226): 29.9 µM (inactive)
- GI50 (A498): 34 µM (inactive)
- GI50 (HCT-116): 37.4 µM (inactive)
- GI50 (SK-MEL-28): 41.1 µM (inactive)
- GI50 (EKVX): 22.2 µM (inactive)
- GI50 (SK-MEL-5): 16.6 µM (inactive)
- GI50 (786-0): 35.5 µM (inactive)
- GI50 (HOP-92): 23.1 µM (inactive)
- GI50 (NCI-H460): 43.3 µM (inactive)
- GI50 (MDA-MB-435): 25.8 µM (inactive)
- GI50 (HCC 2998): 60 µM (inactive)
